The source of these data is patent US20250376471A1, “CRYSTALLINE FORMS OF 2-[3-[4-AMINO-3-(2-FLUORO-4-PHENOXY-PHENYL)PYRAZOLO[3,4-D]PYRIMIDIN-1-YL]PIPERIDINE-1-CARBONYL]-4-METHYL-4-[4-(OXETAN-3-YL)PIPERAZIN-1-YL]PENT-2-ENENITRILE” (Principia Biopharma Inc., priority 2022, published 2025).

≈ marks a conversion by molar mass, not a printed value. Where “and” joins values, the source holds several entries; their conditions need not be identical. Equal entries are not always repeated. Bounds are passed on as bounds.

Data set [1] in a line: Visual solubility of Form B crystal in common solvents at RT. It counts as physicochemical. Conditions: organic solvent or mixture, thermodynamic from solid, visually estimated. The source says: The solubility was visually estimated in 12 common solvents at RT.
Data set [2] is described as follows: Comparative solubility in Milli-Q purified water (HPLC). Conditions: for pH: water, 24 hr. The method, then:
(§1) Using the stock solution, a dilution series for the purpose of HPLC quantitation was generated according to the following Table 8.
First, a quantity of test sample was placed in a 2-dram vial equipped with stir bar. […] In the second step, Milli-Q water was added to the vial under stirring followed by measuring the pH of the resulting suspension/solution. […] In each case, the sample was filtered through a 0.2 μm filter. The resulting solution was appropriately diluted to fall within the calibrated concentration range on HPLC. The sampling was repeated in identical fashion after 3 hr and 24 hr. After the last sample was taken, the pH was recorded again. The dissolved sample was determined by converting the recorded area on HPLC to concentration in mg/mL using the established calibration equation.

Data set [3] in a line: Comparative solubility in aqueous buffers (HPLC). The format is physicochemical. The method, then:
as §1
Next, the second step of this modified procedure involved adding a buffer (5 mL) to the vial under stirring followed by measuring the pH of the resulting suspension. In case the pH drifted by more than 0.1 unit from the target pH, 10 μL aliquots of 1M NaOH (aq.) were used to readjust the pH to the original value. […] As above in 9.2, the samples were filtered through a 0.2 μm filter, and the resulting solution was appropriately diluted to fall within the calibrated concentration range on HPLC. The sampling was repeated in an identical fashion after 3 hr and 24 hr and after the last sample was taken, the pH was recorded again. The dissolved sample was determined by converting the recorded area on HPLC to concentration in mg/mL using the established calibration equation.

A short description of data set [4]: Comparative grinding study (XRPD pre- and post-grinding). It counts as physicochemical. The settings on record: 40 mg ground at 30 Hz for 30 min with steel ball bearing. The method, then:
The samples were each ground at 30 Hz for 30 min, then reanalyzed by XRPD.

Data set [5] is described as follows: Solubility of methyl paraben co-crystal in pH 4.5 and 6.8 buffer (HPLC). It counts as physicochemical. The method, then:
The sample was suspended in 1.5 mL media for a maximum anticipated concentration of Ca. […] The resulting suspensions were then shaken at 25° C./750 rpm for 24 hr. After 1 hr, 3 hr and 24 hr of equilibration, 0.5 mL of sample was aliquoted, the appearance was noted, and the pH of the saturated solution was measured. Samples were then centrifuged at 13,400 rpm for 2 min. Supernatant was used for HPLC analysis. Samples suspended in pH 4.5 buffer were diluted 1:1 (1- and 3-hr samples) and 1:8 (24 hr samples) with pH 4.5 buffer. Samples suspended in pH 6.8 buffer were analyzed undiluted. […] Different volumes of the standard diluted and undiluted sample solutions were injected.

The nature of data set [6]: Hygroscopicity (GVS analysis) and solid-state properties of methyl paraben co-crystal. The format is physicochemical. From the text: The co-crystal is also readily prepared from anti-solvent addition and generates a good yield.
A short description of data set [7]: Compression study (XRPD pre- and post-compression). The format is physicochemical. The settings on record: 6 mm recess disc, 100 kg of pressure for 2 min. How it is done:
The methyl paraben co-crystalline form of Compound (I) after drying in a vacuum oven was compressed into a 6 mm recess disc under 100 kg of pressure for 2 min.

A short description of data set [8]: Static storage analysis (XRPD pre- and post-storage). The format is physicochemical. The settings on record: stored for one week at 25° C. and 40° C. The method, then:
Samples of methyl paraben co-crystalline form of Compound (I) (Example 10), after drying in a vacuum oven were stored for one week at 25° C. and 40° C.

[9] abbreviates: pH 4.5 buffer, 1 hour, 25° C., single sample.

As to `CC(C)(C=C(C#N)C(=O)N1CCCC(n2nc(-c3ccc(Oc4ccccc4)cc3F)c3c(N)ncnc32)C1)N1CCN(C2COC2)CC1` (centres unmarked) [Compound (I) Form B, 2-[3-[4-amino-3-(2-fluoro-4-phenoxy-phenyl)pyrazolo[3,4-d]pyrimidin-1-yl]piperidine-1-carbonyl]-4-methyl-4-[4-(oxetan-3-yl)piperazin-1-yl]pent-2-enenitrile], the solubility – broadly, how much of the substance goes into solution per volume – at 15 min was 20 to 100 mg/mL (≈ 30 to 150 mM) in data set [1] (4-Methyl-2-pentanone (MIBK)); greater than 100 mg/mL in data set [1] (Acetone); 20 to 100 mg/mL (≈ 30 to 150 mM) in data set [1] (Acetonitrile (MeCN)); less than 20 mg/mL in data set [1] (Cyclohexane); 20 to 100 mg/mL (≈ 30 to 150 mM) in data set [1] (Cyclohexanone); greater than 100 mg/mL in data set [1] (Dichloromethane (DCM)). For the same molecule, the solubility at 15 min was 20 to 100 mg/mL (≈ 30 to 150 mM) in data set [1] (Dimethyl carbonate (DMC)); 20 to 100 mg/mL (≈ 30 to 150 mM) in data set [1] (Ethyl acetate (EtOAc)); less than 20 mg/mL in data set [1] (Isopropyl ether (IPE)); greater than 100 mg/mL in data set [1] (Tetrahydrofuran (THF)); less than 20 mg/mL in data set [1] (Toluene); less than 20 mg/mL in data set [1] (t-Butyl Methyl Ether (MTBE)). Further, the pH in data set [2] was 7.8; in data set [3] (50 mM Acetate, 0 hr), 4.5; in data set [3] (50 mM Acetate, 24 hr), 4.5. Further, the solubility at 1 h in data set [3] (50 mM acetate buffer, pH 4.5, aqueous buffer, thermodynamic from solid, 50 mM Acetate, 1 hr) amounted to 1.7 mg/mL (≈ 2.55 mM). Also, the “solid form after grinding (XRPD)” value in data set [4] (listed as Form B crystalline form of Compound (I)) was “became amorphous after grinding”.
As to `CC(C)(C=C(C#N)C(=O)N1CCCC(n2nc(-c3ccc(Oc4ccccc4)cc3F)c3c(N)ncnc32)C1)N1CCN(C2COC2)CC1` (centres unmarked) [Compound (I) amorphous, 2-[3-[4-amino-3-(2-fluoro-4-phenoxy-phenyl)pyrazolo[3,4-d]pyrimidin-1-yl]piperidine-1-carbonyl]-4-methyl-4-[4-(oxetan-3-yl)piperazin-1-yl]pent-2-enenitrile], the pH in data set [2] was found to be 8.3; in data set [3] (50 mM Acetate, 0 hr) it was 4.5; in data set [3] (50 mM Acetate, 24 hr) it was 4.5.
On to `CC(C)(C=C(C#N)C(=O)N1CCCC(n2nc(-c3ccc(Oc4ccccc4)cc3F)c3c(N)ncnc32)C1)N1CCN(C2COC2)CC1.Cl` (centres unmarked) [HCl salt, 2-[3-[4-amino-3-(2-fluoro-4-phenoxy-phenyl)pyrazolo[3,4-d]pyrimidin-1-yl]piperidine-1-carbonyl]-4-methyl-4-[4-(oxetan-3-yl)piperazin-1-yl]pent-2-enenitrile: HCl crystalline salt Form A], for which the “solubility as compared with amorphous form and Compound (I) Form B” value in data set [2] (Example 9, FIGS. 24A-C, water and buffers) is reported as “significantly enhanced solubility”. Further, the pH in data set [2] is 4.0; in data set [3] (50 mM Acetate, 0 hr) it was 4.5; in data set [3] (50 mM Acetate, 24 hr) it was 4.4.
In the case of `CC(C)(C=C(C#N)C(=O)N1CCCC(n2nc(-c3ccc(Oc4ccccc4)cc3F)c3c(N)ncnc32)C1)N1CCN(C2COC2)CC1.O=C(O)/C=C\C(=O)O` (centres unmarked) [Maleate, 2-[3-[4-amino-3-(2-fluoro-4-phenoxy-phenyl)pyrazolo[3,4-d]pyrimidin-1-yl]piperidine-1-carbonyl]-4-methyl-4-[4-(oxetan-3-yl)piperazin-1-yl]pent-2-enenitrile: maleate crystalline salt Form A], the pH in data set [2] is 3.5; in data set [3] (50 mM Acetate, 0 hr), 4.5; in data set [3] (50 mM Acetate, 24 hr), 4.0; in data set [3] (100 mM Acetate, 0 hr), 4.5; in data set [3] (100 mM Acetate, 24 hr) it was 4.5.
In data set [5] (pH 4.5 buffer, 25 °C, pH 4.5, aqueous buffer, thermodynamic from solid, 3 hour, single sample), `CC(C)(C=C(C#N)C(=O)N1CCCC(n2nc(-c3ccc(Oc4ccccc4)cc3F)c3c(N)ncnc32)C1)N1CCN(C2COC2)CC1` (centres unmarked) [Methyl paraben co-crystal, 2-[3-[4-amino-3-(2-fluoro-4-phenoxy-phenyl)pyrazolo[3,4-d]pyrimidin-1-yl]piperidine-1-carbonyl]-4-methyl-4-[4-(oxetan-3-yl)piperazin-1-yl]pent-2-enenitrile] gave a solubility at 3 h of 0.98 mg/mL. In addition, the solubility at 1 h in data set [5] (pH 4.5 buffer, 25 °C, pH 4.5, aqueous buffer, thermodynamic from solid, pH 4.5 buffer, 1 hour, 25° C., single sample, read-out: Solubility) turned out to be 0.65 mg/mL; in data set [5] (pH 4.5 buffer, 25 °C, pH 4.5, aqueous buffer, thermodynamic from solid, pH 4.5 buffer, 1 hour, 25° C., read-out: Average Solubility), 0.65 mg/mL. Further, in data set [5] (setting [9]), the Solubility (as a rule, how much of the substance goes into solution per volume) is listed as 0.64 mg/mL. Besides, the pH is 4.6 in data set [5] (setting [9]); 4.7 and 4.6 in data set [5] (pH 4.5 buffer, 3 hour, 25° C., single sample); 4.7 in data set [5] (pH 4.5 buffer, 24 hour, 25° C., single sample); 6.8 in data set [5] (pH 6.8 buffer, 1 hour, 25° C., single sample); 6.8 in data set [5] (pH 6.8 buffer, 3 hour, 25° C., single sample); 6.9 and 6.8 in data set [5] (pH 6.8 buffer, 24 hour, 25° C., single sample). Also, in data set [5] (solid form stability after solubility test), the “XRPD pattern post-solubility analysis” value is recorded as “no change in the pattern”. The “water absorbed (hygroscopicity)” value in data set [6] (between 0 and 90% RH) worked out at 2.3 % w/w. Further, the “XRPD pattern after GVS analysis, static storage conditions, grinding and compression studies, and kinetic solubility analysis” value in data set [6] (solid form stability) is recorded as “remained the same XRPD pattern”. Also, the “solid form after grinding (XRPD)” value in data set [4] was “retained its co-crystalline structure pattern with only a limited reduction in overall crystallinity”. Besides, in data set [7], the “solid form after drying and compression (XRPD)” value is on record as “retained its co-crystalline structure pattern with only a limited reduction in overall crystallinity”. The “solid form after storage (XRPD)” value in data set [8] is reported as “retained its crystalline structure”.
As to `CC(C)(C=C(C#N)C(=O)N1CCCC(n2nc(-c3ccc(Oc4ccccc4)cc3F)c3c(N)ncnc32)C1)N1CCN(C2COC2)CC1.O=C(O)C(=O)O` (centres unmarked) [Oxalate salt, 2-[3-[4-amino-3-(2-fluoro-4-phenoxy-phenyl)pyrazolo[3,4-d]pyrimidin-1-yl]piperidine-1-carbonyl]-4-methyl-4-[4-(oxetan-3-yl)piperazin-1-yl]pent-2-enenitrile: oxalate crystalline salt hydrate Form A], the pH in data set [2] came to 2.9; in data set [3] (50 mM Acetate, 0 hr), 4.5; in data set [3] (50 mM Acetate, 24 hr), 4.27; in data set [3] (100 mM Acetate, 0 hr) it was 4.5; in data set [3] (100 mM Acetate, 24 hr) it was 4.5.
